Converted amounts (≈) assume the structure as drawn.
What follows are compounds tested on S. pneumoniae ATCC 49619 (assay: Minimal inhibitory concentration (MIC) by broth microdilution (CLSI M7-A7)). Details: Streptococcus pneumoniae, ATCC49619; cation-adjusted Mueller Hinton Broth supplemented with 3% (v/v) lysed horse blood; microdilution method.
Assay type: cell-based, Streptococcus pneumoniae
Method in brief: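 Broth microdilution per CLSI M7-A7 in cation-adjusted Mueller-Hinton broth with 3% (v/v) lysed horse blood for S. pneumoniae. MIC in mg/l.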

Row | SMILES | MIC [µg/mL]
1 | CCNC(=O)Nc1cc2c(-c3ccncc3)ccc(CNC(=O)OCCN3CCCCC3)c2cn1.Cl [Example 98, [3-(3-ethyl-ureido)-5-pyridin-4-yl-isoquinolin-8-ylmethyl]-carbamic acid 2-piperidin-1-yl-ethyl ester hydrochloride] | 4
2 | CCNC(=O)Nc1cc2c(-c3ccnc(C)c3)ccc(CN(C)C(=O)OC)c2cn1 [Example 180, [3-(3-ethyl-ureido)-5-(2-methyl-pyridin-4-yl)-isoquinolin-8-ylmethyl]-methyl-carbamic acid methyl ester] | 8 (≈ 19.6 µM)
3 | CCNC(=O)Nc1cc2c(-c3ccnc(CO)c3)ccc(CNC(=O)OCCOC)c2cn1 [Example 122, [3-(3-ethyl-ureido)-5-(2-hydroxymethyl-pyridin-4-yl)-isoquinolin-8-ylmethyl]-carbamic acid 2-methoxy-ethyl ester] | 4 (≈ 8.82 µM)
4 | CCNC(=O)Nc1cc2c(-c3ccnc(N)c3)ccc(CNC(=O)OC)c2cn1 [Example 163, [5-(2-amino-pyridin-4-yl)-3-(3-ethyl-ureido)-isoquinolin-8-ylmethyl]-carbamic acid methyl ester] | 0.5 (≈ 1.27 µM)
5 | C#CCOC(=O)NCc1ccc(-c2ccnc(N)c2)c2cc(NC(=O)NCC)ncc12.Cl [Example 144, [5-(2-amino-pyridin-4-yl)-3-(3-ethyl-ureido)-isoquinolin-8-ylmethyl]-carbamic acid prop-2-ynyl ester hydrochloride] | 0.5
6 | CCNC(=O)Nc1cc2c(F)ccc(CNC(=O)OCCCN3CCOCC3)c2cn1 [Example 149, [3-(3-ethyl-ureido)-5-fluoro-isoquinolin-8-ylmethyl]-carbamic acid 3-morpholin-4-yl-propyl ester] | 4 (≈ 9.23 µM)
7 | CCNC(=O)Nc1cc2c(-c3ccnc(CC(=O)N(C)C)c3)ccc(CNC(=O)OC)c2cn1 [Example 194, [5-[2-(dimethylcarbamoyl-methyl)-pyridin-4-yl]-3-(3-ethyl-ureido)-isoquinolin-8-ylmethyl]-carbamic acid methyl ester] | 4 (≈ 8.61 µM)
8 | CCNC(=O)Nc1cc2cccc(CNC(=O)OCc3ccn(C)n3)c2cn1.Cl [Example 35, [3-(3-ethyl-ureido)-isoquinolin-8-ylmethyl]-carbamic acid (1-methyl-1H-pyrazol-3-yl)methyl ester hydrochloride] | 4
9 | CCNC(=O)Nc1cc2c(-c3ccncc3C)ccc(CNC(=O)OC)c2cn1.Cl [Example 185, [3-(3-ethyl-ureido)-5-(3-methyl-pyridin-4-yl)-isoquinolin-8-ylmethyl]-carbamic acid methyl ester hydrochloride] | 2
10 | CCNC(=O)Nc1cc2cccc(CNC(=O)CC#N)c2cn1 [Example 5, 2-cyano-N-[3-(3-ethyl-ureido)-isoquinolin-8-ylmethyl]-acetamide] | 4 (≈ 12.8 µM)
11 | CCNC(=O)Nc1cc2c(-c3ccncc3)ccc(CNC(=O)OCC[C@H]3CCCNC3)c2cn1.Cl [Example 100, [3-(3-ethyl-ureido)-5-pyridin-4-yl-isoquinolin-8-ylmethyl]-carbamic acid (R)-2-piperidin-3-yl-ethyl ester hydrochloride] | 8
12 | CCNC(=O)Nc1cc2c(-c3ccnc(F)c3)ccc(CNC(=O)OCCOC)c2cn1 [Example 118, [3-(3-ethyl-ureido)-5-(2-fluoro-pyridin-4-yl)-isoquinolin-8-ylmethyl]-carbamic acid 2-methoxy-ethyl ester] | 0.5 (≈ 1.13 µM)
13 | CCNC(=O)Nc1cc2c(-c3ccncc3)ccc(CNC(=O)c3cccnc3)c2cn1 [Example 23, N-[3-(3-ethyl-ureido)-5-pyridin-4-yl-isoquinolin-8-ylmethyl]-nicotinamide] | 1 (≈ 2.34 µM)
14 | CCNC(=O)Nc1cc2c(-c3ccncc3)ccc(CNC(=O)OCCN3CCOCC3)c2cn1.Cl [Example 91, [3-(3-ethyl-ureido)-5-pyridin-4-yl-isoquinolin-8-ylmethyl]-carbamic acid 2-morpholin-4-yl-ethyl ester hydrochloride] | 1
15 | CCNC(=O)Nc1cc2c(-c3ccncc3)ccc(CNC(=O)CC(=O)O)c2cn1 [Example 45, N-[3-(3-ethyl-ureido)-5-pyridin-4-yl-isoquinolin-8-ylmethyl]-malonamic acid] | 8 (≈ 19.6 µM)
16 | CCNC(=O)Nc1cc2c(-c3ccncc3)ccc(CNC(=O)OCC(C)C)c2cn1.Cl [Example 99, [3-(3-ethyl-ureido)-5-pyridin-4-yl-isoquinolin-8-ylmethyl]-carbamic acid isobutyl ester hydrochloride] | 0.5
17 | CCNC(=O)Nc1cc2c(-c3ccnc(CCC(N)=O)c3)ccc(CNC(=O)OCCOC)c2cn1 [Example 177, [5-[2-(2-carbamoyl-ethyl)-pyridin-4-yl]-3-(3-ethyl-ureido)-isoquinolin-8-ylmethyl]-carbamic acid 2-methoxy-ethyl ester] | 8 (≈ 16.2 µM)
18 | CCNC(=O)Nc1cc2c(-c3ccncc3)ccc(CNC(=O)CC(N)=O)c2cn1 [Example 52, N-[3-(3-ethyl-ureido)-5-pyridin-4-yl-isoquinolin-8-ylmethyl]-malonamide] | 2 (≈ 4.92 µM)
19 | CCNC(=O)Nc1cc2c(-c3ccncc3)ccc(CNC(=O)OCCN(C)C)c2cn1 [Example 78, [3-(3-ethyl-ureido)-5-pyridin-4-yl-isoquinolin-8-ylmethyl]-carbamic acid 2-dimethylamino-ethyl ester] | 4 (≈ 9.16 µM)
20 | CCNC(=O)Nc1cc2cccc(CNC(=O)c3cnn[nH]3)c2cn1 [Example 183, 3H-[1,2,3]triazole-4-carboxylic acid [3-(3-ethyl-ureido)-isoquinolin-8-ylmethyl]-amide] | 1 (≈ 2.95 µM)
21 | CCNC(=O)Nc1cc2c(-c3ccnc(N4CCCC4)c3)ccc(CNC(=O)OC)c2cn1 [Example 171, [3-(3-ethyl-ureido)-5-(2-pyrrolidin-1-yl-pyridin-4-yl)-isoquinolin-8-ylmethyl]-carbamic acid methyl ester] | 4 (≈ 8.92 µM)
22 | CCNC(=O)Nc1cc2c(-c3ccncc3)ccc(CNC(C)=O)c2cn1 [Example 64, N-[3-(3-ethyl-ureido)-5-pyridin-4-yl-isoquinolin-8-ylmethyl]-acetamide] | 0.5 (≈ 1.38 µM)
23 | CCNC(=O)Nc1cc2c(-c3ccncc3)ccc(CNC(=O)c3cnc[nH]3)c2cn1 [Example 71, 3H-imidazole-4-carboxylic acid [3-(3-ethyl-ureido)-5-pyridin-4-yl-isoquinolin-8-ylmethyl]-amide] | 2 (≈ 4.81 µM)
24 | CCNC(=O)Nc1cc2c(-c3ccncc3)ccc(CNC(=O)CCNC(=O)OC(C)(C)C)c2cn1 [Example 49, (2-{[3-(3-ethyl-ureido)-5-pyridin-4-yl-isoquinolin-8-ylmethyl]-carbamoyl}-ethyl)-carbamic acid tert-butyl ester] | 0.5 (≈ 1.02 µM)
25 | C#CCOC(=O)NCc1ccc(-c2ccnnc2)c2cc(NC(=O)NCC)ncc12 [Example 127, [3-(3-ethyl-ureido)-5-pyridazin-4-yl-isoquinolin-8-ylmethyl]-carbamic acid prop-2-ynyl ester] | 8 (≈ 19.8 µM)
26 | CCNC(=O)Nc1cc2c(-c3ccncc3)ccc(CNC(=O)OCCN3CCNC3=O)c2cn1.Cl [Example 93, [3-(3-ethyl-ureido)-5-pyridin-4-yl-isoquinolin-8-ylmethyl]-carbamic acid 2-(2-oxo-imidazolidin-1-yl)-ethyl ester hydrochloride] | 8
27 | CCNC(=O)Nc1cc2c(-c3ccncc3)ccc(CNC(=O)CC3CC3)c2cn1 [Example 57, 2-cyclopropyl-N-[3-(3-ethyl-ureido)-5-pyridin-4-yl-isoquinolin-8-ylmethyl]-acetamide] | 0.5 (≈ 1.24 µM)

Reference: patent US8889676B2, “3-ureidoisoquinolin-8-yl derivatives” (Actelion Pharmaceuticals Ltd., priority 2011, dated 2014)
